In patent US20240358015A1, “HERBICIDAL COMPOSITIONS” (Agrematch Ltd., priority 2021, published 2024):

Columns and labels:
Format in all cases: in vivo
Setaria viridis [1] = test: Growth-chamber post-emergence herbicidal assay (Example 2)
Procedure: (§1) Herbicidal activity was determined by post-emergence application on 8-day old plants (weeds) of the Amaranthus palmeri and Setaria viridis species that were grown at 16 hours/8 hours day/night cycles at 30° C./25° C., respectively. Leaf stage was typically 4-6 for A. palmeri and 3-4 for S. viridis.
(§2) In each treatment, 2-3 pots, each containing about 5 plants each (for Setaria viridis), and one 9-pack, containing about 9 plants (for Amaranthus palmeri), were sprayed using a VL-SET Paasche Airbrush with 0.3-1.5 ml solution containing 0.125-2 mg/ml of a tested compound, which is equivalent to about 125-2000 g/ha.
(§3) Damage assessment: Herbicidal activity was assessed and scored 3-4 days after application by visual inspection of the plants in comparison to plants treated with the formulation alone (with no active ingredient) as control. Activity score is in the range of 0 to 100, where 0 represents no herbicidal activity like control plants and 100 represents the maximal herbicidal activity (i.e., total death of the plant).
Herbicidal activity scores 3-4 days after application are presented Table 3 below.

Setaria viridis [2] = test: Growth-chamber post-emergence assay (Example 8)
Procedure: as §1, with “activity of Compounds 1B, 3, 4, 5 and 6” for “activity”
(§4) In each treatment, between 1 to 4 pots (8×12 cm), containing about 6 Amaranthus palmeri or Setaria viridis plants, were sprayed using a VL-SET Paasche Airbrush with a 1 ml-solution containing 0.250-2 mg/ml of the tested compound, which is equivalent to about 250-2000 g/ha.
as §3

Amaranthus palmeri [3] = test: Growth-chamber post-emergence assay (Example 8)
Procedure: as §1, with “activity of Compounds 1B, 3, 4, 5 and 6” for “activity”
as §4, §3

Amaranthus palmeri [4] = test: Growth-chamber post-emergence herbicidal assay (Example 2)
Procedure: as §1, §2, §3
Formulation design: Compounds were tested on A. Palmeri in various formulations, and in varying concentrations for each of the tested formulations, in order to determine optimal conditions for its application and performance. Activity scores were determined as described hereinabove. Solubility scores were determined by visual inspection on a scale of 1-10, with 10 representing complete solubilization and 1 represents nullified solubilization.
Each of the obtained solution was then mixed with different adjuvants and applied at a rate equivalent to 500 g/ha for A. palmeri and 1000 g/ha for S. viridis. Herbicidal activity scores 3-4 days after application are presented Table 3 below.

[5] = 250 g/ha, 2% MIPA, 2% DMSO, 0.25% Genapol, 2% HASTEN
[6] = 500 g/ha, 2% MIPA, 2% DMSO, 0.25% Genapol, 2% HASTEN
[7] = 1000 g/ha, 2% MIPA, 2% DMSO, 0.25% Genapol, 2% HASTEN, 3-4 days after application, scale 0-100
[8] = 1000 g/ha, 8.6% Acetophenone, 1% TWEEN 80, 1.4% NMP, 0.5% ECO, 0.5% Ca-LAS, 0.05% Break-Thru
[9] = 2000 g/ha, 8.6% Acetophenone, 2% TWEEN 20, 1.4% NMP, 0.5% ECO, 0.5% Ca-LAS, 0.05% Break-Thru
[10] = 250 g/ha, 10% Acetone, 1.85% MIPA, 5% DMSO, 0.23% Genapol, 1.85% HASTEN
[11] = 500 g/ha, 10% Acetone, 1.7% MIPA, 5% DMSO, 0.85% TWEEN20, 1.7% HASTEN
[12] = 1000 g/ha, 2% MIPA, 2% DMSO, 1% TWEEN20, 2% HASTEN
[13] = 2000 g/ha, 2% MIPA, 2% DMSO, 1% TWEEN20, 2% HASTEN
[14] = 250 g/ha, 14% Acetone, 2% MIPA, 5% DMSO, 1% TWEEN20, 2% HASTEN
[15] = 330 g/ha, 5% Acetone, 2% MIPA, 2.5% DMSO, 0.25% Genapol, 2% HASTEN
[16] = 330 g/ha, 10% Acetone, 0.8% MIPA, 5% DMSO, 0.25% Genapol, 2% HASTEN
[17] = 330 g/ha, 10% Acetone, 2% MIPA, 5% DMSO, 0.25% Genapol, 2% HASTEN
[18] = 500 g/ha, 18.5% Acetone, 2% MIPA, 5% DMSO, 1% TWEEN20, 2% HASTEN
[19] = 2000 g/ha, 2% MIPA, 1% TWEEN20, 2% HASTEN

## O=C(O)c1cc(O)c2c(c1)C(=O)c1cccc(O[C@@H]3O[C@H](CO)[C@@H](O)[C@H](O)[C@H]3O)c1C2=O [Compound 1B, Rhein 8-glucoside]
Setaria viridis [1]; 750* g/ha (rate adjusted to reflect that of the Rhein actual active ingredient), 1% Eta-70, 5.7 mM MIPA, 0.05% Break-Thru
  Activity Score: 50
Setaria viridis [2]; [5]
  Herbicidal activity score: 70
Setaria viridis [2]; [6]
  Herbicidal activity score: 95
Setaria viridis [2]; [7]
  Herbicidal activity score: 90
Amaranthus palmeri [3]; [5]
  Herbicidal activity score: 85
Amaranthus palmeri [3]; [6]
  Herbicidal activity score: 100
Amaranthus palmeri [3]; [7]
  Herbicidal activity score: 100
Amaranthus palmeri [4]; 500 g/ha, 2% TWEEN 20, 0.05M Tris buffer pH 8.3, 0.05% Break-Thru
  Activity Score: 30
Amaranthus palmeri [4]; 750* g/ha (rate adjusted to reflect that of the Rhein actual active ingredient), 2% TWEEN 20, 5.7 mM MIPA, 0.05% Break-Thru
  Activity Score: 70

## O=C(O)c1ccc2c(c1)C(=O)c1ccccc1C2=O [Compound 2]
Setaria viridis [1]; 1500 g/ha, 2% DMSO, 1% TWEEN 80, 0.05M Tris buffer pH 8, 0.05% Break-Thru
  Activity Score: 40
Amaranthus palmeri [4]; 500 g/ha, 4.3% Acetophenone, 1% TWEEN 80, 0.7% NMP, 0.25% ECO, 0.25% Ca-LAS, 0.05% Break-Thru
  Activity Score: 100
Amaranthus palmeri [4]; [8]
  Activity Score: 95
Amaranthus palmeri [4]; 2000 g/ha, 2% DMSO, 1% TWEEN 80, 0.05M Tris buffer pH 8, 0.05% Break-Thru
  Activity Score: 100

## COC(=O)c1ccc2c(c1O)C(=O)c1ccccc1C2=O [Compound 3]
Setaria viridis [1]; [9]
  Activity Score: 10
Setaria viridis [2]; [10]
  Herbicidal activity score: 63
Setaria viridis [2]; [11]
  Herbicidal activity score: 88
Setaria viridis [2]; [12]
  Herbicidal activity score: 95
Setaria viridis [2]; [13]
  Herbicidal activity score: 100
Amaranthus palmeri [3]; [10]
  Herbicidal activity score: 91
Amaranthus palmeri [3]; [11]
  Herbicidal activity score: 99
Amaranthus palmeri [3]; [12]
  Herbicidal activity score: 95
Amaranthus palmeri [3]; [13]
  Herbicidal activity score: 95
Amaranthus palmeri [4]; [9]
  Activity Score: 80

## O=C1c2ccccc2C(=O)c2cc(CO)ccc21 [Compound 4]
Setaria viridis [1]; 1500 g/ha, 6% DMSO, 0.05% Break-Thru
  Activity Score: 40
Setaria viridis [2]; [10]
  Herbicidal activity score: 45
Setaria viridis [2]; [14]
  Herbicidal activity score: 90
Setaria viridis [2]; [15]
  Herbicidal activity score: 80
Setaria viridis [2]; [16]
  Herbicidal activity score: 75
Setaria viridis [2]; [17]
  Herbicidal activity score: 88
Setaria viridis [2]; [18]
  Herbicidal activity score: 50
Amaranthus palmeri [3]; [10]
  Herbicidal activity score: 85
Amaranthus palmeri [3]; [14]
  Herbicidal activity score: 90
Amaranthus palmeri [3]; [15]
  Herbicidal activity score: 88
Amaranthus palmeri [3]; [16]
  Herbicidal activity score: 93
Amaranthus palmeri [3]; [17]
  Herbicidal activity score: 80
Amaranthus palmeri [3]; [18]
  Herbicidal activity score: 95
Amaranthus palmeri [4]; [8]
  Activity Score: 95
Amaranthus palmeri [4]; 1500 g/ha, 8.6% Acetophenone, 4% TWEEN 20, 1.4% NMP, 0.5% ECO, 0.5% Ca-LAS, 0.05% Break-Thru
  Activity Score: 95

## Cc1cc(O)c2c(c1)C(=O)c1cc(O)cc(O)c1C2=O [Compound 5]
Setaria viridis [2]; [12]
  Herbicidal activity score: 75
Setaria viridis [2]; [19]
  Herbicidal activity score: 90
Amaranthus palmeri [3]; [12]
  Herbicidal activity score: 95
Amaranthus palmeri [3]; [19]
  Herbicidal activity score: 100
Amaranthus palmeri [4]; [9]
  Activity Score: 70

## O=C1c2ccccc2C(=O)c2c(O)cccc21 [Compound 6]
Setaria viridis [1]; [8]
  Activity Score: 80
Setaria viridis [2]; [14]
  Herbicidal activity score: 90
Setaria viridis [2]; [18]
  Herbicidal activity score: 40
Setaria viridis [2]; [12]
  Herbicidal activity score: 90
Setaria viridis [2]; [13]
  Herbicidal activity score: 95
Amaranthus palmeri [3]; [14]
  Herbicidal activity score: 10
Amaranthus palmeri [3]; [18]
  Herbicidal activity score: 70
Amaranthus palmeri [3]; [12]
  Herbicidal activity score: 70
Amaranthus palmeri [3]; [13]
  Herbicidal activity score: 90
Amaranthus palmeri [4]; 1500 g/ha, 8.6% Acetophenone, 1% TWEEN 80, 1.4% NMP, 0.5% ECO, 0.5% Ca-LAS, 0.05% Break-Thru
  Activity Score: 75

## Nc1ccc(O)c2c1C(=O)c1ccccc1C2=O [Compound 7]
Amaranthus palmeri [4]; [9]
  Activity Score: 40
